Results from ChEMBL document CHEMBL5046288, “Design, Synthesis, and Bioevaluation of 2-Aminopteridin-7(8H)-one Derivatives as Novel Potent Adenosine A2A Receptor Antagonists for Cancer Immunotherapy” (J Med Chem, 2022).
pIC50: −log10 of the molar value. The source made the active and inactive calls. The calls are words filed in the database; no cut-off is given here.

Columns and labels:
Adenosine receptor A2a [1] = target: T1, Adenosine receptor A2a (Homo sapiens, UniProt P29274); assay: Antagonist activity at human A2aR expressed in HEK293 cells assessed as reduction in cAMP production incubated for 60 mins by ultra LANCE cAMP detection assay; format: functional, cell-based
[2] = Metabolic stability in mouse liver microsomes assessed as half life at […] measured up to 60 mins in presence of NADPH by HPLC-MS/MS analysis; format: ADME, Microsome
[3] = Upregulation of NECA-suppressed IL-2 protein level in Ion/PMA-activated human Jurkat T cells at 10 uM by Western blotting analysis; format: functional
Adenosine receptor A2a [4] = target: T1, Adenosine receptor A2a; assay: Antagonist activity at human A2aR expressed in HEK293 cells assessed as reduction in NECA-induced cAMP production incubated for 20 mins in presence of 20 nM NECA by GloSensor cAMP detection assay; format: functional, cell-based
Homo sapiens [5] = species on record: Homo sapiens; assay: Selectivity ratio of IC50 for human A1R to IC50 for human A2aR
Homo sapiens [6] = species on record: Homo sapiens; assay: Selectivity ratio of IC50 for human A2BR to IC50 for human A2aR
Homo sapiens [7] = species on record: Homo sapiens; assay: Selectivity ratio of IC50 for human A3R to IC50 for human A2aR
Adenosine receptor A2a [8] = target: T1, Adenosine receptor A2a; assay: Antagonist activity at human A2aR expressed in HEK293 cells assessed as reduction in NECA-induced cAMP production incubated for 20 mins in presence of 40 nM NECA by ultra LANCE cAMP detection assay; format: functional, cell-based
Adenosine receptor A2a [9] = target: T1, Adenosine receptor A2a; assay: Antagonist activity at human A2aR expressed in HEK293 cells assessed as reduction in NECA-induced cAMP production incubated for 20 mins in presence of 1 uM NECA by ultra LANCE cAMP detection assay; format: functional, cell-based
Jurkat = assay: Upregulation of NECA-suppressed IL-2 mRNA level in Ion/PMA-activated human Jurkat T cells at 10 uM by Q-PCR analysis; format: functional, cell-based
HCT-116 [10] = assay: Cytotoxicity against human HCT-116 cells co-cultured with Ion/PMA-activated human Jurkat T cells assessed as reversal of NECA-induced suppression of cytotoxic function of Jurkat T cell by measuring survival rate at E:T ratio of 6:1 at 10 uM measured after 48 hrs by crystal violet staining based colony assay; format: functional
HCT-116 [11] = assay: Cytotoxicity against human HCT116 cells assessed as reduction in cell viability incubated for 24 hrs by MTS assay; format: toxicity, cell-based; conditions: hct-116, 24 h
MC-38 = assay: Cytotoxicity against mouse MC38 cells assessed as reduction in cell viability incubated for 24 hrs by MTS assay; format: toxicity, cell-based; conditions: mc-38, 24 h

T1 sequence (P29274 whole entry): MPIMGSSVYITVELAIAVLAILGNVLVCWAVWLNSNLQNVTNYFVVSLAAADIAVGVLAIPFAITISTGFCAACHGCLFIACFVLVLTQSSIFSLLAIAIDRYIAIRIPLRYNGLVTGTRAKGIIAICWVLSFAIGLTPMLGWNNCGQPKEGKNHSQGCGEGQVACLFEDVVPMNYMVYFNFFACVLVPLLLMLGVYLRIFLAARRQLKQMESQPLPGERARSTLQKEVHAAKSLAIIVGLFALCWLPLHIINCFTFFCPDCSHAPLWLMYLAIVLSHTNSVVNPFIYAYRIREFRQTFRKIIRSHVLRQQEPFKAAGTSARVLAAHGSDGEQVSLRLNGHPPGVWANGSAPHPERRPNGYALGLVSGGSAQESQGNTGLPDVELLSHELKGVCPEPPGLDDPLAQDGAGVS

pIC50 (Adenosine receptor A2a [1])	Structure (SMILES)	other results
6.32	Cc1ccc(-c2nc(N)nc3c2ncc(=O)n3Cc2ccccc2)o1	–
6.00	Cc1ccc(-c2nc(N)nc3c2ncc(=O)n3CC2CC2)o1	–
< 5.00	Cc1ccc(-c2nc(N)nc3c2ncc(=O)n3Cc2cccc(C(F)(F)F)c2)o1	–
6.15	Cc1ccc(-c2nc(N)nc3c2ncc(=O)n3CCCc2ccccc2)o1	–
7.93	Cc1ccc(-c2nc(N)nc3c2ncc(=O)n3CCN2CCN(c3ccccc3F)CC2)o1	–
< 5.00	Cc1ccc(-c2nc(N)nc3c2ncc(=O)n3CC2CCN(c3ccccc3)CC2)o1	–
6.22	Cc1ccc(-c2nc(N)nc3c2ncc(=O)n3CCN2CCN(c3ccc(Oc4ccccc4)cc3)CC2)o1	–
< 5.00	Cc1ccc(-c2nc(N)nc3c2NC(=O)CN3Cc2ccccc2)o1	–
6.32	COc1cccc(Cn2c(=O)cnc3c(-c4ccc(C)o4)nc(N)nc32)c1	–
< 5.00	Cc1ccc(-c2nc(N)nc3c2CCN(Cc2ccccc2)C3)o1	–
7.24	Cc1ccc(-c2nc(N)nc3c2ncc(=O)n3CCN2CCN(c3cccc(F)c3)CC2)o1	–
< 5.00	COc1ccc(N(C)C2CN(CCn3c(=O)cnc4c(-c5ccc(C)o5)nc(N)nc43)C2)cc1	–
6.41	Cc1ccc(-c2nc(N)nc3c2ncc(=O)n3CCN2CCC(c3ccccc3)CC2)o1	–
7.23	Cc1ccc(-c2nc(N)nc3c2ncc(=O)n3CCN2CCN(c3ccc(F)cc3)CC2)o1	–
5.66	Cc1ccc(-c2nc(N)nc3c2ncc(=O)n3Cc2ccco2)o1	–
< 5.00	COc1ccc(Cn2c(=O)cnc3c(-c4ccc(C)o4)nc(N)nc32)cc1	–
5.55	Cc1ccc(-c2nc(N)nc3c2n(C)c(=O)n3Cc2ccccc2)o1	–
5.99	Cc1ccc(-c2nc(N)nc3c2[nH]c(=O)n3Cc2ccccc2)o1	–
5.42	COc1ccccc1N1CCN(CCn2c(=O)cnc3c(-c4ccc(C)o4)nc(N)nc32)CC1	–
6.01	Cc1ccc(-c2nc(N)nc3c2ncc(=O)n3CCCCc2ccccc2)o1	–
< 5.00	Cc1ccc(-c2nc(N)nc3c2ncc(=O)n3CCN2CCN(c3ccccc3OC(F)(F)F)CC2)o1	–

Continued, molecule first:

Structure (SMILES)	pIC50 (Adenosine receptor A2a [1])	other results
Cc1ccc(-c2nc(N)nc3c2ncc(=O)n3CCN2CCN(C)CC2)o1	< 5.00	–
Cc1ccc(-c2nc(N)nc3c2ncc(=O)n3CCN2CCN(c3ccc(OC(F)F)cc3)CC2)o1	7.20	–
Cc1ccc(-c2nc(N)nc3c2ncc(=O)n3CCN2CCN(C3CCCC3)CC2)o1	< 5.00	–
Cc1ccc(-c2nc(N)nc3c2ncc(=O)n3CCN2CCN(c3ccc(OC(F)(F)F)cc3)CC2)o1	6.92	–
Cc1ccc(-c2nc(N)nc3c2ncc(=O)n3CCN2CCN(c3ccc(OC(F)F)cc3F)CC2)o1	7.68	–
COc1ccc(N2CCC(N(C)CCn3c(=O)cnc4c(-c5ccc(C)o5)nc(N)nc43)C2)cc1 (centres undefined)	< 5.00	–
Cc1ccc(-c2nc(N)nc3c2ncc(=O)n3CCN2CCN(c3cccc(OC(F)(F)F)c3)CC2)o1	< 5.00	–
COc1ccc(N2C[C@H](C)N(CCn3c(=O)cnc4c(-c5ccc(C)o5)nc(N)nc43)C[C@H]2C)cc1	5.69	–
COCCOc1ccc(N2CCN(CCn3c(=O)cnc4c(-c5ccc(C)o5)nc(N)nc43)CC2)cc1	7.62	–
COc1cnc(N2CCN(CCn3c(=O)cnc4c(-c5ccc(C)o5)nc(N)nc43)CC2)c(F)c1	8.26	–
COc1ccc(N2CCCN(CCn3c(=O)cnc4c(-c5ccc(C)o5)nc(N)nc43)CC2)cc1	6.15	–
Cc1ccc(-c2nc(N)nc3c2ncc(=O)n3CCN2CCN(c3ccc(F)cc3F)CC2)o1	8.07	–
Cc1ccc(-c2nc(N)nc3c2ncc(=O)n3CCN2CCN(c3ccc(F)cc3Cl)CC2)o1	7.06	–
COCCOc1ccc(N2CCN(CCn3c(=O)cnc4c(-c5ccc(C)o5)nc(N)nc43)CC2)c(F)c1F	8.03	–
Cc1ccc(-c2nc(N)nc3c2ncc(=O)n3CC2CCCCC2)o1	5.73	–
COc1ccc(N2CCN(CCn3c(=O)cnc4c(-c5ccc(C)o5)nc(N)nc43)CC2)cn1	7.53	–
COc1ccc(N(C)C2CCN(CCn3c(=O)cnc4c(-c5ccc(C)o5)nc(N)nc43)C2)cc1 (centres undefined)	< 5.00	–
Cc1ccc(-c2nc(N)nc3c2ncc(=O)n3CCN2CCN(c3ccc(C(F)(F)F)cc3)CC2)o1	6.75	–
COc1ccc(N2CCN(CCn3c(=O)cnc4c(-c5ccc(C)o5)nc(N)nc43)C[C@@H]2C)cc1	6.65	–
COc1ccc(N2CCN(CCn3c(=O)cnc4c(-c5ccc(C)o5)nc(N)nc43)CC2)c(F)c1	8.31	half-life [2]: 5.1 min
COc1ccc(N2CC3CCC(C2)N3CCn2c(=O)cnc3c(-c4ccc(C)o4)nc(N)nc32)cc1	6.26	–
COc1ccc(N2CCN(CCn3c(=O)cnc4c(-c5ccc(C)o5)nc(N)nc43)C[C@H]2C)cc1	7.43	–
COc1ccc(N2CCN(CCn3c(=O)cnc4c(-c5ccc(C)o5)nc(N)nc43)[C@@H](C)C2)c(F)c1	8.08	fold change (FC) [3]: 3.77; pIC50 (Adenosine receptor A2a [4]): 8.18; Ratio IC50 (Homo sapiens [5]): > 1000; Ratio IC50 (Homo sapiens [6]): > 1000; Ratio IC50 (Homo sapiens [7]): > 1000; pIC50 (Adenosine receptor A2a [8]): 8.08; pIC50 (Adenosine receptor A2a [9]): 6.75; Activity (Jurkat): inactive; half-life [2]: 38.5 min; Activity (HCT-116 [10]): 48.6%; Activity (HCT-116 [11]): Non-Toxic; Activity (MC-38): Non-Toxic
COc1ccc(N2C[C@@H]3C[C@H]2CN3CCn2c(=O)cnc3c(-c4ccc(C)o4)nc(N)nc32)cc1	< 5.00	–
COc1ccc(N2CCN(CCn3c(=O)cnc4c(-c5ccc(C)o5)nc(N)nc43)CC2)nc1	6.67	–
